From patent US8889671B2, “Compounds and methods for treating bacterial infections” (AstraZeneca AB, priority 2013, dated 2014)
Values after ≈ are worked out from the molar mass of the structure shown. Read-outs that look alike come from different tables or passages of the source.

Tests used:
Staphylococcus aureus = assay: Susceptibility testing (MIC) Assay 1, broth microdilution; format: cell-based
Experimental: (§1) Minimum Inhibitory Concentrations (MICs) were determined by the broth microdilution method in accordance with the Clinical and Laboratory Standards Institute (CLSI) guidelines. In brief, organism suspensions were adjusted to a 0.5 McFarland standard to yield a final inoculum between 3×10^5 and 7×10^5 colony-forming units (CFU)/mL. Bacterial inocula were prepared for most organisms in sterile, cation adjusted Mueller-Hinton Broth (Beckton Dickinson). The streptococci were prepared as above in cation adjusted Mueller-Hinton Broth to which 2.5% lysed horse blood (Hema Resource & Supply Inc.) was added. An inoculum volume of 100 μL was added to wells (using a Tecan EVO robot) containing 2 μL of DMSO containing 2-fold serial dilutions of drug. All inoculated microdilution trays were incubated in ambient air at 35° C. for 18-24 hours. Following incubation, the lowest concentration of the drug that prevented visible growth as read at OD600 nm and confirmed by a visual read using a test reading mirror was recorded as the MIC. Performance of the assay was monitored by the use of laboratory quality-control strains and commercially available control compounds with defined MIC spectrums, in accordance with CLSI guidelines. Table 1 provides the MIC results (μM) of Examples 1-77 tested in Assay 1. Table 2 provides the MIC (μg/mL) results of Examples 78-80 tested in Assay 1.

Streptococcus pneumoniae = assay: as above; format: cell-based
Experimental: as §1

Streptococcus pyogenes = assay: as above; format: cell-based; details: Streptococcus pyrgenes, in vivo strain, read-out: Spy MIC
Experimental: as §1

Escherichia coli = assay: Susceptibility testing (MIC) Assay 2, broth microdilution; format: cell-based; details: K12, read-out: Eco MIC
Experimental: (§2) Minimum Inhibitory Concentrations (MICs) were determined by the broth microdilution method in accordance with the Clinical and Laboratory Standards Institute (CLSI) guidelines. In brief, organism suspensions were adjusted to a 0.5 McFarland standard to yield a final inoculum between 3×10^5 and 7×10^5 colony-forming units (CFU)/mL. Bacterial inocula were generally prepared in sterile, cation adjusted Mueller-Hinton Broth (Becton Dickinson) which included Escherichia coli, Klebsiella pneumoniae, and Pseudomonas aeruginosa. Haemophilus influenzae bacterial inocula were prepared in sterile, cation adjusted Mueller-Hinton Broth (Becton Dickinson) containing 0.5% yeast extract (Becton Dickinson) plus 30 mL of 15 μg/mL Bovine Hematin stock (Sigma), and 3 mL of 15 μg/mL β-nicotinamide adenine dinucleotide (Sigma). Strains of Neisseria were tested for MICs using agar dilution methodology in accordance with CLSI guidelines. For broth microdilution testing, an inoculum volume of 100 μL was added to wells (using a Tecan EVO robot) containing 2 μL of DMSO containing 2-fold serial dilutions of drug. All inoculated microdilution panels were incubated in ambient air at 35° C. for 18-24 hours. Following incubation, the lowest concentration of the drug that prevented visible growth as read at OD600 nm and confirmed by a visual read using a test reading mirror was recorded as the MIC. Performance of the assay was monitored by the use of laboratory quality-control strains and commercially available control compounds with defined MIC spectrums, in accordance with CLSI guidelines. Table 3 provides the MIC results (μM) of Examples 1-77 tested in Assay 2. Table 4 provides the MIC (μg/mL) results of Examples 78-80 tested in Assay 2.

Haemophilus influenzae = assay: as above; format: cell-based; details: ATCC 51907, in vivo strain, read-out: Hin MIC
Experimental: as §2

Klebsiella pneumoniae = assay: as above; format: cell-based; details: clinical isolate, mucoid, read-out: Kpn MIC
Experimental: as §2

Pseudomonas aeruginosa = assay: as above; format: cell-based; details: for MIC: PAO1, read-out: Pae MIC; for Pae MIC: PAO1
Experimental: as §2

[1] = molecular target: Escherichia coli DNA gyrase A/B tetramer (Escherichia coli (strain K12), UniProt P0AES4+P0AES6); assay: DNA gyrase supercoiling activity fluorescence polarisation assay; format: biochemical; details: 0.3 mM ATP
Experimental: In a black, 384-well polystyrene assay plate, 30 microliters/well of 5 nM Escherichia coli DNA gyrase A/B tetramer and 130 micrograms/mL of topologically relaxed plasmid containing the triplex-forming sequence
in an assay buffer consisting of 35 mM Tris-HCl (pH 7.5), 24 mM KCl, 4 mM MgCl2, 2 mM dithiothreitol, 1.8 mM spermidine, 5% (v/v) glycerol, 200 nM bovine serum albumin, 0.8% dimethylsulfoxide, and 0.3 mM ATP were incubated at ambient temperature for (typically 30 minutes) in the absence or presence of 5-10 different concentrations of test compound. The supercoiling reactions were quenched by the addition of 10 microliters/well of 40 nM oligodeoxynucleotide probe in 3× triplex-forming buffer consisting of 150 mM NaCl, and 150 mM sodium acetate at pH 3.5. The oligodeoxynucleotide probe was 5′-BODIPY-FL-labeled
After 60 minutes, the fluorescence anisotropy of the BODIPY-FL was measured in a Tecan Ultra plate reader, using 485 nm excitation and 535 nm emission filters equipped with polarizers. The IC50 was determined by nonlinear regression using two control reactions.

[2] = Staphylococcus aureus, Staphylococcus aureus in vivo strain, MSQS, read-out: Sau(d) MIC
[3] = Staphylococcus aureus, in vivo strain, MRQR, read-out: Sau(e) MIC
[4] = Staphylococcus aureus, serum, read-out: Sau(f) MIC
[5] = in vivo strain (footnote b), read-out: Spn(b) MIC
[6] = in vivo strain (footnote c), read-out: Spn(c) MIC
[7] = ATCC51907, Haemophilus influenzae
[8] = Eco Gyr FP Mean IC50, E. coli DNA gyrase supercoiling
[9] = Staphylococcus aureus in vivo strain, MSQS, read-out: Sau(d) MIC
[10] = E. coli DNA gyrase supercoiling, read-out: Eco Gyr FP Mean IC50

| SMILES | MIC (Staphylococcus aureus; [2]) [µM] | MIC (Staphylococcus aureus; [3]) [µM] | MIC (Staphylococcus aureus; [4]) [µM] | MIC (Streptococcus pneumoniae; [5]) [µM] | MIC (Streptococcus pneumoniae; [6]) [µM] | MIC (Streptococcus pyogenes; Streptococcus pyogenes) [µM] | MIC (Escherichia coli) [µM] | MIC (Haemophilus influenzae; [7]) [µM] | MIC (Klebsiella pneumoniae) [µM] | MIC (Pseudomonas aeruginosa) [µM] | IC50 [1, 8] [nM] | MIC (Staphylococcus aureus; [9]) [µM] | MIC (Streptococcus pyogenes) [µM] | MIC (Haemophilus influenzae) [µM] | Pae MIC (Pseudomonas aeruginosa) [µM] | IC50 [1, 10] [nM] |
| --- | --- | --- | --- | --- | --- | --- | --- | --- | --- | --- | --- | --- | --- | --- | --- | --- |
| C[C@@H]1CN2c3c(cc4c(N5C(=O)OC[C@@H]5C)noc4c3Cl)CC3(C(=O)NC(=O)NC3=O)[C@H]2[C@H](C)O1 [Example 66, (2R,4S,4aS)-11-Chloro-2,4-dimethyl-8-((S)-4-methyl-2-oxooxazolidin-3-yl)-2,4,4a,6-tetrahydro-1H, 1′H-spiro[isoxazolo[4,5-g][1,4]oxazino[4,3-a]quinoline-5,5′-pyrimidine]-2′,4′,6′(3′H)-trione] | 0.39 (≈ 0.197 µg/mL) | 0.78 (≈ 0.393 µg/mL) | 0.78 (≈ 0.393 µg/mL) | 0.39 (≈ 0.197 µg/mL) | 0.78 (≈ 0.393 µg/mL) | 0.39 (≈ 0.197 µg/mL) | 6.2 (≈ 3.12 µg/mL) | 0.78 (≈ 0.393 µg/mL) | 100 (≈ 50.4 µg/mL) | > 200 | 170 |  |  |  |  |  |
| C[C@@H]1CN2c3c(cc4c(N5C(=O)OC[C@@H]5c5cnccn5)noc4c3F)CC3(C(=O)NC(=O)NC3=O)[C@H]2[C@H](C)O1 [Example 62, (2R,4S,4aS)-11-fluoro-2,4-dimethyl-8-((S)-2-oxo-4-(pyrazin-2-yl)oxazolidin-3-yl)-2,4,4a,6-tetrahydro-1H,1′H-spiro[isoxazolo[4,5-g][1,4]oxazino[4,3-a]quinoline-5,5′-pyrimidine]-2′,4′,6′(3′H)-trione] | 3.1 (≈ 1.71 µg/mL) | 6.2 (≈ 3.42 µg/mL) | 6.2 (≈ 3.42 µg/mL) | 6.2 (≈ 3.42 µg/mL) | 3.1 (≈ 1.71 µg/mL) | 3.1 (≈ 1.71 µg/mL) | > 200 | 3.1 (≈ 1.71 µg/mL) | > 200 | > 200 | 1400 |  |  |  |  |  |
| CC[C@H]1CN(c2noc3c(F)c4c(cc23)CC2(C(=O)NC(=O)NC2=O)[C@H]2[C@H](C)O[C@H](C)CN42)C(=O)O1 [Example 13, (2R,4S,4aS)-8-[(5S)-5-Ethyl-2-oxo-1,3-oxazolidin-3-yl]-11-fluoro-2,4-dimethyl-1,2,4,4a-tetrahydro-2′H,6H-spiro[1,4-oxazino[4,3-a][1,2]oxazolo[4,5-g]quinoline-5,5′-pyrimidine]-2′,4′,6′(1′H,3′H)-trione] | 0.39 (≈ 0.196 µg/mL) | 0.78 (≈ 0.391 µg/mL) | 0.78 (≈ 0.391 µg/mL) | 0.78 (≈ 0.391 µg/mL) | 0.78 (≈ 0.391 µg/mL) | 0.39 (≈ 0.196 µg/mL) | 12 (≈ 6.02 µg/mL) | 0.78 (≈ 0.391 µg/mL) | 200 (≈ 100 µg/mL) | > 200 | 510 |  |  |  |  |  |
| C[C@@H]1CN2c3c(cc4c(N5C(=O)OC[C@@H]5[C@@H](C)O)noc4c3F)CC3(C(=O)NC(=O)NC3=O)[C@H]2[C@H](C)O1 [Example 77] | 3.1 (≈ 1.6 µg/mL) | 12 (≈ 6.21 µg/mL) | 6.2 (≈ 3.21 µg/mL) | 0.78 (≈ 0.404 µg/mL) | 0.78 (≈ 0.404 µg/mL) | 0.78 (≈ 0.404 µg/mL) | 200 (≈ 103 µg/mL) | 0.78 (≈ 0.404 µg/mL) | > 200 | > 200 | 530 |  |  |  |  |  |
| CON=C[C@H]1COC(=O)N1c1noc2c(F)c3c(cc12)CC1(C(=O)NC(=O)NC1=O)[C@H]1[C@H](C)O[C@H](C)CN31 [Example 42, (2R,4S,4aS)-11-Fluoro-8-{(4S)-4-[(methoxyimino)methyl]-2-oxo-1,3-oxazolidin-3-yl}-2,4-dimethyl-1,2,4,4a-tetrahydro-2′H,6H-spiro[1,4-oxazino[4,3-a][1,2]oxazolo[4,5-g]quinoline-5,5′-pyrimidine]-2′,4′,6′(1′H,3′H)-trione] | < 0.2 | 0.39 (≈ 0.207 µg/mL) | 1.6 (≈ 0.849 µg/mL) | 0.39 (≈ 0.207 µg/mL) | 0.39 (≈ 0.207 µg/mL) | 0.39 (≈ 0.207 µg/mL) | 25 (≈ 13.3 µg/mL) | 0.39 (≈ 0.207 µg/mL) | 200 (≈ 106 µg/mL) | > 200 | 290 |  |  |  |  |  |
| COC[C@@H]1COC(=O)N1c1noc2c(F)c3c(cc12)CC1(C(=O)NC(=O)NC1=O)[C@H]1[C@H](C)O[C@H](C)CN31 [Example 18, (2R,4S,4aS)-11-fluoro-8-[(4R)-4-(methoxymethyl)-2-oxo-1,3-oxazolidin-3-yl]-2,4-dimethyl-1,2,4,4a-tetrahydro-2′H,6H-spiro[1,4-oxazino[4,3-a][1,2]oxazolo[4,5-g]quinoline-5,5′-pyrimidine]-2′,4′,6′(1′H,3′H)-trione] | 3.1 (≈ 1.6 µg/mL) | 6.2 (≈ 3.21 µg/mL) | 12 (≈ 6.21 µg/mL) | 3.1 (≈ 1.6 µg/mL) | 6.2 (≈ 3.21 µg/mL) | 12 (≈ 6.21 µg/mL) | > 200 | 3.1 (≈ 1.6 µg/mL) | > 200 | > 200 | 810 |  |  |  |  |  |
| C[C@@H]1CN2c3c(cc4c(N5C(=O)OC[C@H]5C5CCOCC5)noc4c3F)CC3(C(=O)NC(=O)NC3=O)[C@H]2[C@H](C)O1 [Example 27] |  | 3.1 (≈ 1.73 µg/mL) | 1.6 (≈ 0.892 µg/mL) | 0.78 (≈ 0.435 µg/mL) | 0.78 (≈ 0.435 µg/mL) |  | 100 (≈ 55.8 µg/mL) |  | >200 |  |  | 0.78 (≈ 0.435 µg/mL) | 0.78 (≈ 0.435 µg/mL) | 0.39 (≈ 0.217 µg/mL) | >200 | 530 |
| C[C@@H]1CN(c2noc3c(F)c4c(cc23)CC2(C(=O)NC(=O)NC2=O)[C@H]2[C@H](C)O[C@H](C)CN42)C(=O)O1 [Example 4, (2R,4S,4aS)-11-Fluoro-2,4-dimethyl-8-[(5R)-5-methyl-2-oxo-1,3-oxazolidin-3-yl]-1,2,4,4a-tetrahydro-2′H,6H-spiro[1,4-oxazino[4,3-a][1,2]oxazolo[4,5-g]quinoline-5,5′-pyrimidine]-2′,4′,6′(1′H,3′H)-trione] | 0.25 (≈ 0.122 µg/mL) | 0.67 (≈ 0.327 µg/mL) | 0.47 (≈ 0.229 µg/mL) | 0.42 (≈ 0.205 µg/mL) | 0.46 (≈ 0.224 µg/mL) | 0.36 (≈ 0.175 µg/mL) | 9.9 (≈ 4.83 µg/mL) | 0.47 (≈ 0.229 µg/mL) | 200 (≈ 97.5 µg/mL) | > 200 | 390 |  |  |  |  |  |
| C[C@@H]1CN2c3c(cc4c(N5C(=O)OC[C@@H]5CCCO)noc4c3Cl)CC3(C(=O)NC(=O)NC3=O)[C@H]2[C@H](C)O1 [Example 33, (2R,4S,4aS)-11-Chloro-8-((S)-4-(3-hydroxpropyl)-2-oxooxazolidin-3-yl)-2,4-dimethyl-2,4,4a,6-tetrahydro-1H,1′H-spiro[isoxazolo[4,5-g][1,4]oxazino[4,3-a]quinoline-5,5′-pyrimidine]-2′,4′,6′(3′H)-trione] |  | 12 (≈ 6.58 µg/mL) | 6.2 (≈ 3.4 µg/mL) | 0.39 (≈ 0.214 µg/mL) | 0.39 (≈ 0.214 µg/mL) |  | 100 (≈ 54.8 µg/mL) |  | >200 |  |  | 3.1 (≈ 1.7 µg/mL) | 0.39 (≈ 0.214 µg/mL) | 0.78 (≈ 0.427 µg/mL) | >200 | 260 |
